Here are results for 5 compounds from patent US20190185479A1, “BICYCLIC NITROGENATED HETEROCYCLIC COMPOUND” (MITSUBISHI TANABE PHARMA CORPORATION, priority 2016, published 2019).

For the assay, the target named is T1, hPDE7B (Homo sapiens, UniProt Q9NP56).
T1 construct: made in house; host or cells: COS-7 cells
Nature of the assay: PDE7 selectivity test (Ki value), Experimental Example 2: hPDE7B. In kind it is biochemical. Conditions: Ki from IC50 by Cheng-Prusoff, read-out: PDE inhibition constant Ki, PDE7. The procedure:
hPDE1A, hPDE2A, hPDE3A, hPDE4D, hPDE5A, and hPDE8B were purchased from SB Drug Discovery. hPDE7B was isolated by the same method as [Method for preparing samples 1], and hPDE9A, hPDE10A, and hPDE11A were isolated by the same method as hPDE7B, i.e., isolated from COS-7 cells transfected with plasmids encoding each PDE. PDE6 was purified and isolated from bovine retina (bovine PDE6).
Prior to the calculation of Ki value, Km value of each PDE against cAMP or cGMP was calculated. Each PDE diluted with an assay buffer so that it would have an appropriate enzyme activity, and six or more concentrations of cAMP or cGMP were reacted at room temperature for 60 minutes. Regarding PDE using cAMP as a substrate, PDELight (trademark) HTS cAMP phosphodiesterase Kit (Lonza) was used to measure a degradation product, 5′-AMP. Also, regarding PDE using cGMP as a substrate, […] of perchloric acid was added to the mixture to stop the reaction, and the resulting mixture was subjected to LC-MS/MS to measure the residual cGMP concentration. The amount of degraded substrate in each substrate concentration was calculated, the concentration of the added substrate was plotted on the horizontal axis, the amount of degraded substrate was plotted on the vertical axis, and Km value was calculated by non-linear regression on the basis of Michaelis-Menten equation. Km value (substrate) of each PDE was hPDE1A: 4.3 (cGMP), hPDE2A: 36 (cAMP), hPDE3A: 0.11 (cAMP), hPDE4D: 0.90 (cAMP), hPDE5A: 3.9 (cGMP), bovine PDE6:9.8 (cGMP), hPDE7B: 0.015 (cAMP), hPDE8B: 0.63 (cAMP), hPDE9A: 0.0037 (cGMP), hPDE10A: 0.051 (cAMP), and hPDE11A: 1.4 (cAMP) μmol/L, respectively.
Next, PDE inhibition assay of a compound was carried out using each PDE. The PDE inhibition assay was basically carried out by the same enzyme reaction method as [Assay procedure 1], and the degraded amount of cAMP or cGMP was measured by the same method as [Assay procedure 2]. In the assay, a concentration approximated to Km value of each PDE against cAMP or cGMP was used as a substrate concentration. Meanwhile, regarding hPDE5A, hPDE8B, and hPDE9A, IMAP (trademark) FP Phosphodiesterase Evaluation Assay Kit (Molecular Devices) was used to measure the degradation of FAM-cAMP or FAM-cGMP by fluorescence depolarization technique.
Each compound was evaluated at six or more concentrations with common ratio 10. Each inhibition rate was calculated according to <Method for data calculation 1>, and then each IC50 value was calculated by sigmoid regression. The resulting IC50 value was used in the following Cheng-Prusoff equation to calculate each Ki value. Ki=IC50/(1+[S]/Km), wherein [S] represents a substrate concentration used

Usually Ki stands for a dissociation constant, usually derived from enzyme kinetics or from competition with a known ligand.

T1 sequence (Q9NP56 whole entry): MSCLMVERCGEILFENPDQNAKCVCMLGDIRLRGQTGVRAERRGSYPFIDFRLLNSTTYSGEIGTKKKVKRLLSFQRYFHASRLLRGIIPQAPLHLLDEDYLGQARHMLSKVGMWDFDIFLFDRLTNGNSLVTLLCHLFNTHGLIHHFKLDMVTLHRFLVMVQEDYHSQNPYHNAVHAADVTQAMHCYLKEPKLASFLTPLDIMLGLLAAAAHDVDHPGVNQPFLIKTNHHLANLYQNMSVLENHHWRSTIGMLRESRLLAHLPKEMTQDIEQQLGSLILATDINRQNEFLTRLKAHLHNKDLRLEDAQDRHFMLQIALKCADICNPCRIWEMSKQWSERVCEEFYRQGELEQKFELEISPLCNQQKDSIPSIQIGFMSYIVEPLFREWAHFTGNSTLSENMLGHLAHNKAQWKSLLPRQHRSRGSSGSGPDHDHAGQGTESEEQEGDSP

Regarding `CC1CCCCC1n1nnc2c(N)ncnc21` (single isomer, unassigned) [Example 191, 3-(cis-2-methylcyclohexyl)-3H-[1,2,3]triazolo[4,5-d]pyrimidin-7-amine], the Ki was found to be 12 nM.
Take `Nc1ncnc2c1nnn2C1CCCCC1` [Example 3, 3-cyclohexyl-3H-[1,2,3]triazolo[4,5-d]pyrimidin-7-amine]: the Ki came to 31 nM.
Regarding `Cc1nc(N)c2nnn(C3CCCCC3)c2n1` [Example 4], the Ki amounted to 27 nM.
Take `Nc1nccn2c(C3CCCCC3)nnc12` [Example 141, 3-cyclohexyl[1,2,4]triazolo[4,3-a]pyrazin-8-amine]: the Ki was 31 nM.
With `C[C@@H]1CCC[C@H](c2nnc3c(N)nccn23)C1` [Example 204, 3-[(1S,3R)-3-methylcyclohexyl][1,2,4]triazolo[4,3-a]pyrazin-8-amine], the Ki amounted to 3 nM.
